Laboratory results published in patent US20240408096A1, “DOSING REGIMENS FOR ORAL ALK2 KINASE INHIBITORS” (BioCryst Pharmaceuticals, Inc., priority 2020, published 2024).

Assays:
wtALK2 = biological target: T1, wtALK2 (Homo sapiens, UniProt Q04771); experiment: wtALK2 functional assays; assay type: biochemical; conditions: several functional assays; read-out: wtALK2 activity potency (IC50)
T1 sequence (Q04771 21-509): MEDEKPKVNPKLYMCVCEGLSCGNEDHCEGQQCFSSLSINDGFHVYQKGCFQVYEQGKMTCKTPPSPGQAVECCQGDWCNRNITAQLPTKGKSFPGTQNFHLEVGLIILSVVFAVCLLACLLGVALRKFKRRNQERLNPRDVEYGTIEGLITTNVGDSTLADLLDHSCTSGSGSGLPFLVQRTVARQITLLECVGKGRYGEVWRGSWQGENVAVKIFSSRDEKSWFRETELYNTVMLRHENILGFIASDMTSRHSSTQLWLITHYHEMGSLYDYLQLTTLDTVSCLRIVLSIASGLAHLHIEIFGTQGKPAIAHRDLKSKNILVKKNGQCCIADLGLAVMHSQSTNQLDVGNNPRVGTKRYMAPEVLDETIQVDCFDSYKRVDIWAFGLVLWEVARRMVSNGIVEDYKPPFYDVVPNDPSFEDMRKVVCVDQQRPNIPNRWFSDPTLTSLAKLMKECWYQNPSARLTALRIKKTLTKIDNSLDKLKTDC

HO bone formation = experiment: mouse model of HO bone formation; assay type: in vivo; conditions: dosing for 21 days
[1] = safety pharmacology studies (CNS, respiratory, cardiovascular); assay type: in vivo; conditions: HEDs exceeding likely human daily clinical dose ranges (5 to 200 mg)
[2] = ECG / QTc after oral administration to dogs; assay type: in vivo, dog; conditions: HEDs up to 667 mg based on a 60 kg subject
[3] = nonclinical PK / toxicokinetic assessments; assay type: in vivo
[4] = plasma protein binding, monkey; assay type: in vitro ADME; conditions: in vitro
CYP2A6 = biological target: T2, CYP2A6 (Homo sapiens, UniProt P11509); experiment: CYP inhibition in vitro; assay type: in vitro ADME
T2 sequence (P11509 1-494): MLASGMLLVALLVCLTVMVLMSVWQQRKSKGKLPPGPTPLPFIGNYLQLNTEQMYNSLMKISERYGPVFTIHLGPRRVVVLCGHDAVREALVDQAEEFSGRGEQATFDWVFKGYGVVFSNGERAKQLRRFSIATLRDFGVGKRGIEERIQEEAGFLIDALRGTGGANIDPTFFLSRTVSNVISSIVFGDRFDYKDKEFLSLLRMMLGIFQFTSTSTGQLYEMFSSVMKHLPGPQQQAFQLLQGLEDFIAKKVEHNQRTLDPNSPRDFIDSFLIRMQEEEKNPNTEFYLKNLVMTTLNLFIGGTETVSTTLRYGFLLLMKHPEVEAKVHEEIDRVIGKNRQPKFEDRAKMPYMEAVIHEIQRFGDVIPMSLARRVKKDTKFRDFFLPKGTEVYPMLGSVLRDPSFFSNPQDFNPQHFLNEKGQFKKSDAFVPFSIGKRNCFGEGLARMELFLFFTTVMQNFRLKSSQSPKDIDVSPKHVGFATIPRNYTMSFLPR

CYP3A = experiment: CYP inhibition in vitro; assay type: in vitro ADME
CYP2C19 = CYP2C19 (Homo sapiens, UniProt P33261); experiment: CYP inhibition in vitro; assay type: in vitro ADME
Sequence of CYP2C19 (P33261 whole entry): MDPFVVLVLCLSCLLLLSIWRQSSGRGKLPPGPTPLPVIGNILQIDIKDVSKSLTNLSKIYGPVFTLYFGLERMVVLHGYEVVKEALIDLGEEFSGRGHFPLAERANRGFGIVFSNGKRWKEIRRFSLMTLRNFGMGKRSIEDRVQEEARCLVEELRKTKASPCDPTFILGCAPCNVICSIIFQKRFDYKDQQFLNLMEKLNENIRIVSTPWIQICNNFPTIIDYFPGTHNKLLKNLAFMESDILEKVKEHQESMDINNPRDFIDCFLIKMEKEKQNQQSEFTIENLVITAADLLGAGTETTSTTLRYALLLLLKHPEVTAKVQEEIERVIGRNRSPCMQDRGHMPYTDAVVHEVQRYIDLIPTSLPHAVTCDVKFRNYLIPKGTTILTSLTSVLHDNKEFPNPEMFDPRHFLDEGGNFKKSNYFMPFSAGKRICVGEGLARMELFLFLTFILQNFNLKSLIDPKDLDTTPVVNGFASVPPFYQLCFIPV

[5] = in vitro genotoxicity: numerical chromosomal aberrations; assay type: cell-based
[6] = Phase 1 Part 1 (SAD) urinary PK; assay type: in vivo, human; conditions: for CLR,0-6 / CLR,6-12 / CLR,12-24 / Cum % excreted0-72 / CumAe0-72 / CLR,24-48: Part 1 SAD, geometric mean (CV%); for CumAe0-72: urine 0 to 72 hours
Procedure: (§1) Four sequential SAD cohorts were dosed.
Urine samples were collected according to the schedule in Tables 4 and 5 for Parts 1 and 2, respectively. The pre-dose sample on Day 1 was collected any time in the 2 hours prior to dosing. A 30-minute window was allowed around collection intervals.

[7] = Phase 1 Part 1 (SAD) safety and tolerability; assay type: in vivo, human; conditions: healthy subjects
Procedure: The primary outcome measure of Part 1 and Part 2 will be: (1) measurement of the safety and tolerability by subject incidence of graded treatment-emergent adverse events (TEAEs), laboratory abnormalities, and changes to vital signs, ECGs, cardiac telemetry, and physical examination findings.
as §1
For each cohort of Part 1, the daily dose of study drug was administered as a single dose (1 time daily or QD). In Part 1 of the study, following a screening period to determine eligibility, subjects in each cohort entered the Phase 1 clinical research unit (CRU) on the afternoon of Day −1. Study eligibility was re-confirmed upon admission to the CRU, and subjects remained in the CRU overnight prior to dosing on Day 1. Following Day 1, subjects remained in the CRU for an additional 72 hours post-dose (i.e., discharge on Day 4) to enable collection of plasma and urine for PK samples and other study assessments. Subjects were discharged from the CRU following plasma PK sample collection on Day 4 and returned on Day 16 (+2 days) for a final follow-up visit.

- IC50 (wtALK2): < 0.1 µM
- plasma protein binding [4]: ≥ 99.9%
- CYP2A6 inhibition (CYP2A6): not an inhibitor
- CYP3A inhibition (CYP3A): not an inhibitor
- CYP2C19 inhibition (CYP2C19): is an inhibitor
- cumulative amount of parent compound excreted in the urine ([6]; Part 1, single doses 5 to 25 mg, all cohorts): less than 0.3 % of the administered dose
- CLR,0-6 ([6]; 5 mg): 23.63 (28.3) mL/h
- CLR,6-12 ([6]; 5 mg): 14.61 (92.8) mL/h
- CLR,12-24 ([6]; 5 mg): 8.576 (263,3) mL/h
- Cum % excreted0-72 ([6]; 5 mg): 0.2668 (43.6) %
- CumAe0-72 ([6]; 5 mg): 13,340 (43.6) ng
- CLR,0-6 ([6]; 10 mg): 9.499 (79.6) mL/h
- CLR,6-12 ([6]; 10 mg): 6.137 (93.2) mL/h
- CLR,12-24 ([6]; 10 mg): 4.759 (56,5) mL/h
- Cum % excreted0-72 ([6]; 10 mg): 0.1206 (84.0) %
- CumAe0-72 ([6]; 10 mg): 12,060 (84.0) ng
- CLR,0-6 ([6]; 15 mg fasted): 12.84 (56.2) mL/h
- CLR,6-12 ([6]; 15 mg fasted): 6.793 (98.8) mL/h
- CLR,12-24 ([6]; 15 mg fasted): 8.008 (114.1) mL/h
- CLR,24-48 ([6]; 15 mg fasted): 7.674 (80.2) mL/h
- Cum % excreted0-72 ([6]; 15 mg fasted): 0.1409 (79.5) %
- CumAe0-72 ([6]; 15 mg fasted): 21,130 (79.5) ng
- CLR,0-6 ([6]; 25 mg): 15.98 (99.4) mL/h
- CLR,6-12 ([6]; 25 mg): 10.56 (138.2) mL/h
- CLR,12-24 ([6]; 25 mg): 9.785 (145.0) mL/h
- CLR,24-48 ([6]; 25 mg): 10.44 (87.9) mL/h
- Cum % excreted0-72 ([6]; 25 mg): 0.1928 (87.0) %
- CumAe0-72 ([6]; 25 mg): 48,210 (87.0) ng
Structure (SMILES): COc1cc(-n2cnc(Nc3nc(N4CCC[C@H]4C(N)=O)nc4sccc34)c2)cc(OC)c1OC.O=C(O)CC(O)(CC(=O)O)C(=O)O [Compound A]
- new HO bone formation (HO bone formation): significant reduction in new HO bone formation
- adverse central nervous system, respiratory, or cardiovascular issues [1]: no adverse central nervous system, respiratory, or cardiovascular issues
- prolongation of corrected QT interval (QTc) or other ECG changes [2]: did not induce prolongation of corrected QT interval (QTc)
- oral bioavailability ([3]; nonclinical PK studies): orally bioavailable
- accumulation with repeated dosing ([3]; repeated dosing up to 28 days, toxicokinetic assessments): do not accumulate
- induction of numerical chromosomal aberrations [5]: negative
- safety and tolerability ([7]; Part 1, single ascending oral doses 5 mg to 25 mg): safe and generally well tolerated
- grade 3 or 4 adverse events ([7]; Part 1, single oral doses 5 mg to 25 mg): no grade 3 or 4 adverse events
